Reference: patent publication US20260242419A1, “A CYCLIC PEPTIDE FOR TRAPPING INTERLEUKIN-1 BETA” (Merck Sharp & Dohme LLC, priority 2023, published 2026)
Where two headings read alike, the source gives them in different places. Starred links: 1 amine or outer side, 2 acyl side, 3 side chain; linkers in the order of their positions; H or OH if unused. Non-standard residues stand in square brackets, D forms with d. Residues, ends and D or L forms follow the SMILES beside them. Phe(4-(cis-4-COOH-cHex)) = N[C@@H](Cc1ccc([C@H]2CC[C@@H](C(=O)O)CC2)cc1)C(=O)O; Trp(4-Cl)(βS-Me) = C[C@@H](c1c[nH]c2cccc(Cl)c12)[C@H](N)C(=O)O; dPro(4R-(4-pyridylmethyl)) = O=C(O)[C@H]1C[C@@H](Cc2ccncc2)CN1; Ala(piperidin-4-yl) = O=C([C@H](CC1CCN([*:3])CC1)N[*:1])[*:2]; Trp(βS-Me,4-F) = C[C@@H](c1c[nH]c2cccc(F)c12)[C@H](N)C(=O)O; Bip(4'-CONH2) = NC(=O)c1ccc(-c2ccc(C[C@H](N)C(=O)O)cc2)cc1; Bip(4'-COOH) = N[C@@H](Cc1ccc(-c2ccc(C(=O)O)cc2)cc1)C(=O)O; Ala(1-bicyclo(1.1.1)pentyl) = N[C@@H](CC12CC(C1)C2)C(=O)O; dPro(4R-Bzl(4-F)) = O=C(O)[C@H]1C[C@@H](Cc2ccc(F)cc2)CN1; dPro(3S-(4-F-Bn)) = O=C(O)[C@@H]1NCC[C@@H]1Cc1ccc(F)cc1; Phe(2-Cl,4-COOH) = N[C@@H](Cc1ccc(C(=O)O)cc1Cl)C(=O)O; 1Nal(3S-Me) = C[C@@H](c1cccc2ccccc12)[C@H](N)C(=O)O; X4 = O=C([C@H]1[C@@H](Cc2ccncc2)CCN1[*:1])[*:2]; X5 = O=C([C@H]1C[C@@H](Cc2ccccc2)CN1[*:1])[*:2]; Ala(pyrimidin-5-yl) = N[C@@H](Cc1cncnc1)C(=O)O; Phe(4-CONH2) = NC(=O)c1ccc(C[C@H](N)C(=O)O)cc1; Phe(4-COOH) = N[C@@H](Cc1ccc(C(=O)O)cc1)C(=O)O; Trp(4-F) = N[C@@H](Cc1c[nH]c2cccc(F)c12)C(=O)O; Bip = N[C@@H](Cc1ccc(-c2ccccc2)cc1)C(=O)O; Pro(cis-4-F) = O=C(O)[C@@H]1C[C@H](F)CN1; Ala(4-THP) = N[C@@H](CC1CCOCC1)C(=O)O; AEF = NCCOc1ccc(C[C@H](N)C(=O)O)cc1; cisHyp = O=C(O)[C@@H]1C[C@H](O)CN1; d(αMeD) = C[C@@](N)(CC(=O)O)C(=O)O; 4Pal = N[C@@H](Cc1ccncc1)C(=O)O; aThr = C[C@H](O)[C@H](N)C(=O)O; d(αMeS) = C[C@@](N)(CO)C(=O)O; αMeK = C[C@](N)(CCCCN)C(=O)O; hSer = N[C@@H](CCO)C(=O)O; Dab = NCC[C@H](N)C(=O)O; Aib = CC(C)(N)C(=O)O; Sar = CNCC(=O)O

Target: T1, IL-1β (Homo sapiens, UniProt P01584)
T1 construct: purchased BioLegend 579404
T1 sequence (P01584 117-269): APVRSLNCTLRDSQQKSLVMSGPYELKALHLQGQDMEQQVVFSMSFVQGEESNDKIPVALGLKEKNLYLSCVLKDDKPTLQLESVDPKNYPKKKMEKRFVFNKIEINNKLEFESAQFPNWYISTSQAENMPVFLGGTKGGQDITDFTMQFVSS
Assay: IL-6 assay in MRC5 cells: inhibition of IL-1β induced IL-6 secretion (AlphaLISA)
Assay type: cell-based
Conditions: inhibition of IL-1β induced IL-6 secretion in MRC5 cells, read-out: MRC5 IC50
In short: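 Compound was pre-incubated 1 h at ambient temperature with recombinant human IL-1β at 2λ EC80 before adding human lung fibroblast MRC5 cells (3000/well) in EMEM with 0.025% BSA. After overnight culture at 37 °C, 5% CO2, secreted IL-6 in conditioned medium was measured by AlphaLISA; IC50 from 4-parameter logistic fits.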

[1] = compound pre-incubated 1 hour with recombinant human IL-1β

SMILES | IC50 | IC50 [1]
C[C@@H](c1c[nH]c2cccc(F)c12)[C@@H]1NC(=O)[C@@H]2C[C@H](F)CN2C(=O)CNC(=O)[C@H](Cc2ccc(C(=O)O)cc2)NC(=O)[C@H](Cc2ccncc2)NC(=O)[C@H](Cc2ccc(-c3ccc(C(=O)O)cc3)cc2)NC(=O)[C@H]2C[C@@H](Cc3ccc(F)cc3)CN2C(=O)CNC(=O)[C@H](CCN)NC(=O)[C@H](CCC(N)=O)NC(=O)[C@H](Cc2cncnc2)NC(=O)[C@](C)(CCCCN)NC(=O)[C@H](Cc2c[nH]c3ccccc23)NC(=O)[C@H](CCO)NC(=O)C(C)(C)NC1=O [Example 133] (cyclo([Bip(4'-COOH)][4Pal][Phe(4-COOH)]G[Pro(cis-4-F)][Trp(βS-Me,4-F)][Aib][hSer]W[αMeK][Ala(pyrimidin-5-yl)]Q[Dab]G[dPro(4R-Bzl(4-F))])) | 0.021 nM | 
C[C@@H](c1c[nH]c2cccc(F)c12)[C@@H]1NC(=O)[C@@H]2C[C@H](F)CN2C(=O)CNC(=O)[C@H](Cc2ccc(C(=O)O)cc2)NC(=O)[C@H](Cc2ccncc2)NC(=O)[C@H](Cc2ccc(-c3ccc(C(=O)O)cc3)cc2)NC(=O)[C@H]2C[C@@H](Cc3ccc(F)cc3)CN2C(=O)CNC(=O)[C@H](CCN)NC(=O)[C@H](CCC(N)=O)NC(=O)[C@H](CC2CCNCC2)NC(=O)[C@@](C)(CC(=O)O)NC(=O)[C@H](Cc2c[nH]c3ccccc23)NC(=O)[C@H](CO)NC(=O)C(C)(C)NC1=O [Example 320] (cyclo([Bip(4'-COOH)][4Pal][Phe(4-COOH)]G[Pro(cis-4-F)][Trp(βS-Me,4-F)][Aib]SW[d(αMeD)][Ala(piperidin-4-yl)]Q[Dab]G[dPro(4R-Bzl(4-F))])) | 0.015 nM | 
C[C@@H](c1c[nH]c2cccc(F)c12)[C@@H]1NC(=O)[C@@H]2C[C@H](O)CN2C(=O)CNC(=O)[C@H](Cc2ccc(C(=O)O)cc2)NC(=O)[C@H](Cc2ccncc2)NC(=O)[C@H](Cc2ccc(-c3ccc(C(=O)O)cc3)cc2)NC(=O)[C@H]2C[C@@H](Cc3ccncc3)CN2C(=O)CN(C)C(=O)[C@H](CCN)NC(=O)[C@H](CCC(N)=O)NC(=O)[C@H](CC2CCOCC2)NC(=O)[C@@](C)(CO)NC(=O)[C@H](Cc2c[nH]c3ccccc23)NC(=O)[C@H](CO)NC(=O)C(C)(C)NC1=O [Example 207] (cyclo([Bip(4'-COOH)][4Pal][Phe(4-COOH)]G[cisHyp][Trp(βS-Me,4-F)][Aib]SW[d(αMeS)][Ala(4-THP)]Q[Dab][Sar][dPro(4R-(4-pyridylmethyl))])) | 0.044 nM | 
C[C@@H](c1c[nH]c2cccc(F)c12)[C@@H]1NC(=O)[C@@H]2C[C@H](F)CN2C(=O)CNC(=O)[C@H](Cc2ccc(C(=O)O)cc2)NC(=O)[C@H](Cc2ccncc2)NC(=O)[C@H](Cc2ccc(-c3ccc(C(=O)O)cc3)cc2)NC(=O)[C@H]2C[C@@H](Cc3ccncc3)CN2C(=O)CNC(=O)[C@H](CCN)NC(=O)[C@H](CCC(N)=O)NC(=O)[C@H](Cc2cncnc2)NC(=O)[C@@](C)(CC(=O)O)NC(=O)[C@H](Cc2c[nH]c3cccc(F)c23)NC(=O)[C@H](CO)NC(=O)C(C)(C)NC1=O [Example 252] (cyclo([Bip(4'-COOH)][4Pal][Phe(4-COOH)]G[Pro(cis-4-F)][Trp(βS-Me,4-F)][Aib]S[Trp(4-F)][d(αMeD)][Ala(pyrimidin-5-yl)]Q[Dab]G[dPro(4R-(4-pyridylmethyl))])) |  | 0.013 nM
CC(C)C[C@H]1NC(=O)[C@@](C)(CC(=O)O)NC(=O)[C@H](Cc2c[nH]c3ccccc23)NC(=O)[C@H](CO)NC(=O)C(C)(C)NC(=O)[C@H]([C@@H](C)c2c[nH]c3cccc(F)c23)NC(=O)[C@@H]2C[C@H](F)CN2C(=O)CNC(=O)[C@H](Cc2ccc(C(=O)O)cc2)NC(=O)[C@H](Cc2ccncc2)NC(=O)[C@H](Cc2ccc(-c3ccc(C(=O)O)cc3)cc2)NC(=O)[C@H]2[C@@H](Cc3ccncc3)CCN2C(=O)CNC(=O)[C@H](CCN)NC(=O)[C@H](CCC(N)=O)NC1=O [Example 238] (cyclo([Bip(4'-COOH)][4Pal][Phe(4-COOH)]G[Pro(cis-4-F)][Trp(βS-Me,4-F)][Aib]SW[d(αMeD)][dL]Q[Dab]G[X4])) |  | 0.024 nM
C[C@@H](c1c[nH]c2cccc(F)c12)[C@@H]1NC(=O)[C@@H]2C[C@H](F)CN2C(=O)CNC(=O)[C@H](Cc2ccc(C(=O)O)cc2)NC(=O)[C@H](Cc2ccncc2)NC(=O)[C@H](Cc2ccc(-c3ccc(C(=O)O)cc3)cc2)NC(=O)[C@H]2C[C@@H](Cc3ccccc3)CN2C(=O)CNC(=O)[C@H](CO)NC(=O)[C@H](CCC(N)=O)NC(=O)[C@H](Cc2cncnc2)NC(=O)C(C)(C)NC(=O)[C@H](Cc2c[nH]c3ccccc23)NC(=O)[C@H](CCC(=O)O)NC(=O)C(C)(C)NC1=O [Example 30] (cyclo([Bip(4'-COOH)][4Pal][Phe(4-COOH)]G[Pro(cis-4-F)][Trp(βS-Me,4-F)][Aib]EW[Aib][Ala(pyrimidin-5-yl)]QSG[X5])) | 0.026 nM | 
C[C@@H](c1c[nH]c2cccc(F)c12)[C@@H]1NC(=O)[C@@H]2C[C@H](F)CN2C(=O)CNC(=O)[C@H](Cc2ccc(C(N)=O)cc2)NC(=O)[C@H](Cc2ccncc2)NC(=O)[C@H](Cc2ccc(-c3ccc(C(N)=O)cc3)cc2)NC(=O)[C@H]2[C@@H](Cc3ccc(F)cc3)CCN2C(=O)CNC(=O)[C@H](CCN)NC(=O)[C@H](CCC(N)=O)NC(=O)[C@H](Cc2cncnc2)NC(=O)[C@@](C)(CC(=O)O)NC(=O)[C@H](Cc2c[nH]c3ccccc23)NC(=O)[C@H](CO)NC(=O)C(C)(C)NC1=O [Example 380] (cyclo([Bip(4'-CONH2)][4Pal][Phe(4-CONH2)]G[Pro(cis-4-F)][Trp(βS-Me,4-F)][Aib]SW[d(αMeD)][Ala(pyrimidin-5-yl)]Q[Dab]G[dPro(3S-(4-F-Bn))])) | 0.018 nM | 
C[C@@H](c1c[nH]c2cccc(F)c12)[C@@H]1NC(=O)[C@@H]2C[C@H](F)CN2C(=O)CNC(=O)[C@H](Cc2ccc(C(=O)O)cc2)NC(=O)[C@H](CC23CC(C2)C3)NC(=O)[C@H](Cc2ccc([C@H]3CC[C@@H](C(=O)O)CC3)cc2)NC(=O)[C@H]2C[C@@H](Cc3ccncc3)CN2C(=O)CNC(=O)[C@H](CCN)NC(=O)[C@H](CCC(N)=O)NC(=O)[C@H](Cc2cncnc2)NC(=O)[C@@](C)(CC(=O)O)NC(=O)[C@H](Cc2c[nH]c3ccccc23)NC(=O)[C@H](CO)NC(=O)C(C)(C)NC1=O [Example 335] (cyclo([Phe(4-(cis-4-COOH-cHex))][Ala(1-bicyclo(1.1.1)pentyl)][Phe(4-COOH)]G[Pro(cis-4-F)][Trp(βS-Me,4-F)][Aib]SW[d(αMeD)][Ala(pyrimidin-5-yl)]Q[Dab]G[dPro(4R-(4-pyridylmethyl))])) | 0.022 nM | 
C[C@H](O)[C@@H]1NC(=O)[C@@](C)(CC(=O)O)NC(=O)[C@H](Cc2c[nH]c3ccccc23)NC(=O)[C@H](CO)NC(=O)C(C)(C)NC(=O)[C@H]([C@@H](C)c2cccc3ccccc23)NC(=O)[C@@H]2C[C@H](F)CN2C(=O)CNC(=O)[C@H](Cc2ccc(C(=O)O)cc2Cl)NC(=O)[C@H](Cc2ccncc2)NC(=O)[C@H](Cc2ccc(-c3ccc(C(=O)O)cc3)cc2)NC(=O)[C@H]2C[C@@H](Cc3ccncc3)CN2C(=O)CNC(=O)[C@H](CCN)NC(=O)[C@H](CCC(N)=O)NC1=O [Example 354] (cyclo([Bip(4'-COOH)][4Pal][Phe(2-Cl,4-COOH)]G[Pro(cis-4-F)][1Nal(3S-Me)][Aib]SW[d(αMeD)][aThr]Q[Dab]G[dPro(4R-(4-pyridylmethyl))])) | 0.014 nM | 
COC[C@@]1(C)NC(=O)[C@H](Cc2c[nH]c3ccccc23)NC(=O)[C@H](CO)NC(=O)C(C)(C)NC(=O)[C@H]([C@@H](C)c2c[nH]c3cccc(F)c23)NC(=O)[C@@H]2C[C@H](F)CN2C(=O)CNC(=O)[C@H](Cc2ccc(C(=O)O)cc2)NC(=O)[C@H](Cc2ccncc2)NC(=O)[C@H](Cc2ccc(-c3ccc(C(=O)O)cc3)cc2)NC(=O)[C@H]2[C@@H](Cc3ccncc3)CCN2C(=O)CNC(=O)[C@H](CCN)NC(=O)[C@H](CCC(N)=O)NC(=O)[C@H](Cc2cncnc2)NC1=O [Example 224] (cyclo([Bip(4'-COOH)][4Pal][Phe(4-COOH)]G[Pro(cis-4-F)][Trp(βS-Me,4-F)][Aib]SW[d(αMeS)](Me)[Ala(pyrimidin-5-yl)]Q[Dab]G[X4])) | 0.03 nM | 
C[C@H](O)[C@@H]1NC(=O)[C@@](C)(CC(=O)O)NC(=O)[C@H](Cc2c[nH]c3ccccc23)NC(=O)[C@H](CO)NC(=O)C(C)(C)NC(=O)[C@H]([C@@H](C)c2c[nH]c3cccc(Cl)c23)NC(=O)[C@@H]2C[C@H](F)CN2C(=O)CNC(=O)[C@H](Cc2ccc(C(=O)O)cc2)NC(=O)[C@H](Cc2ccncc2)NC(=O)[C@H](Cc2ccc(-c3ccccc3)cc2)NC(=O)[C@H]2C[C@@H](Cc3ccncc3)CN2C(=O)CNC(=O)[C@H](CCN)NC(=O)[C@H](CCC(N)=O)NC1=O [Example 289] (cyclo([Bip][4Pal][Phe(4-COOH)]G[Pro(cis-4-F)][Trp(4-Cl)(βS-Me)][Aib]SW[d(αMeD)][aThr]Q[Dab]G[dPro(4R-(4-pyridylmethyl))])) |  | 0.015 nM
CC(=O)NCCOc1ccc(C[C@@H]2NC(=O)[C@H]3C[C@@H](Cc4ccncc4)CN3C(=O)CNC(=O)[C@H](CCN)NC(=O)[C@H](CCC(N)=O)NC(=O)[C@H](CC3CCOCC3)NC(=O)[C@@](C)(CC(=O)O)NC(=O)[C@H](Cc3c[nH]c4ccccc34)NC(=O)[C@H](CO)NC(=O)C(C)(C)NC(=O)[C@H]([C@@H](C)c3cccc4ccccc34)NC(=O)[C@@H]3C[C@H](F)CN3C(=O)CNC(=O)[C@H](Cc3ccc(C(=O)O)cc3Cl)NC(=O)[C@H](Cc3ccncc3)NC2=O)cc1 [Example 363] (cyclo([AEF](Ac)[4Pal][Phe(2-Cl,4-COOH)]G[Pro(cis-4-F)][1Nal(3S-Me)][Aib]SW[d(αMeD)][Ala(4-THP)]Q[Dab]G[dPro(4R-(4-pyridylmethyl))])) | 0.021 nM | 
